A short description of test [1]: Inhibition of Streptococcus agalactiae COH1 NSR transfected in Lactococcus lactis NZ9000 assessed as decrease in NSR-induced resistance by measuring increase in growth inhibition incubated for 5 hrs by optical density based plate reader assay.
Test [2] in a line: Inhibition of Lactococcus lactis ATP-binding cassette transporter NisFEG harboring in Lactococcus lactis NZ9000 assessed as decrease in NisFEG induced resistance measured as increase in growth inhibition incubated for 5 hrs by optical density based plate reader assay.
The nature of test [3]: Resistance ratio of IC50 for inhibition of Lactococcus lactis ATP-binding cassette transporter NisFEG harboring in Lactococcus lactis NZ9000 assessed as decrease in NisFEG induced resistance measured as increase in growth inhibition to IC50 for growth inhibition of nisin-sensitive Lactococcus lactis NZ9000Cm incubated for 5 hrs by optical density based plate reader assay.

Test [4] in a line: Resistance ratio of IC50 for inhibition of Streptococcus agalactiae COH1 NSR transfected in Lactococcus lactis NZ9000 assessed as decrease in NSR induced resistance measured as increase in growth inhibition to IC50 for growth inhibition of nisin-sensitive Lactococcus lactis NZ9000Cm incubated for 5 hrs by optical density based plate reader assay.
The nature of test [5]: Resistance ratio of IC50 for inhibition of Streptococcus agalactiae COH1 NsrFP transfected in Lactococcus lactis NZ9000 assessed as decrease in NsrFP induced resistance measured as increase in growth inhibition to IC50 for growth inhibition of nisin-sensitive Lactococcus lactis NZ9000Cm incubated for 5 hrs by optical density based plate reader assay.
The test system of test [6] is Lactococcus lactis. As to the kind of experiment: Induction of pore formation in Lactococcus lactis NZ9000Cm assessed as increase in florescence intensity at 3 times antibacterial IC50 measured after 200 secs by sytox green-based fluorescence assay. Type of test: functional, organism-based.
Test [7] relates to Lactococcus lactis. The test is described as follows: Growth inhibition of nisin-sensitive Lactococcus lactis NZ9000Cm incubated for 5 hrs by optical density based plate reader assay. Type of test: functional, organism-based.
The nature of test [8]: Inhibition of Streptococcus agalactiae COH1 NsrFP transfected in Lactococcus lactis NZ9000 assessed as decrease in NsrFP-induced resistance by measuring increase in growth inhibition incubated for 5 hrs by optical density based plate reader assay.
A short description of test [9]: Resistance ratio of IC50 for Inhibition of Lactococcus lactis Nis1 harboring in Lactococcus lactis NZ9000 assessed as decrease in Nis1 induced resistance measured as increase in growth inhibition to IC50 for growth inhibition of nisin-sensitive Lactococcus lactis NZ9000Cm incubated for 5 hrs by optical density based plate reader assay.
Test [10] is described as follows: Inhibition of Lactococcus lactis Nis1 harboring in Lactococcus lactis NZ9000 assessed as decrease in Nis1 induced resistance measured as increase in growth inhibition incubated for 5 hrs by optical density based plate reader assay.
For test [11], the system named is Lactococcus lactis. The test is described as follows: Induction of pore formation in Lactococcus lactis NZ9000Cm assessed as increase in florescence intensity at 3 times antibacterial IC50 measured after 200 secs by sytox green-based fluorescence assay relative to control. The class given is functional.

Activity calls are given as the source filed them. The rule behind the calls is not given here.

Usually IC50 stands for the concentration needed to halve the response being measured. On to `C=C(NC(=O)[C@@H](NC(=O)[C@H](Cc1cnc[nH]1)NC(=O)[C@@H](NC(=O)[C@H](CO)NC(=O)[C@@H]1CS[C@@H](C)[C@@H]2NC(=O)[C@H](C)NC(=O)[C@@H](NC(=O)[C@H](CC(N)=O)NC(=O)[C@@H]3CS[C@@H](C)[C@H](NC(=O)[C@H](CCCCN)NC(=O)[C@@H]4CS[C@@H](C)[C@H](NC(=O)[C@@H]5CSC[C@H](NC(=O)/C(=C/C)NC(=O)[C@@H](N)[C@@H](C)CC)C(=O)N[C@@H]([C@@H](C)CC)C(=O)NC(=C)C(=O)N[C@@H](CC(C)C)C(=O)N5)C(=O)N5CCC[C@H]5C(=O)NCC(=O)N4)C(=O)NCC(=O)N[C@@H](C)C(=O)N[C@@H](CC(C)C)C(=O)N[C@@H](CCSC)C(=O)NCC(=O)N3)[C@H](C)SC[C@H](NC2=O)C(=O)N[C@@H](Cc2cnc[nH]2)C(=O)N1)[C@@H](C)CC)C(C)C)C(=O)N[C@@H](CCCCN)C(=O)O`, for which the IC50 in test [1] was 221 nM; in test [2] it was 72.1 nM; in test [7], 43.4 nM; in test [8] it was 213 nM; in [10], 109 nM. Further, the Ratio IC50 worked out at 1.66 in [3], 5.09 in test [4], 4.9 in [5] and 2.5 in test [9]. Moreover, the outcome in test [6] was inactive.
`C=C(NC(=O)[C@@H](NC(=O)[C@H](Cc1cnc[nH]1)NC(=O)[C@@H](NC(=O)[C@H](CO)NC(=O)[C@@H]1CS[C@@H](C)[C@@H]2NC(=O)[C@H](C)NC(=O)[C@@H](NC(=O)[C@@H](NC(=O)[C@@H](NC(=O)[C@H](CCCCN)NC(=O)[C@H](CCSC)NC(=O)[C@H](CC(N)=O)NC(=O)[C@@H]3CS[C@@H](C)[C@H](NC(=O)[C@H](CCCCN)NC(=O)[C@@H]4CS[C@@H](C)[C@H](NC(=O)[C@@H]5CSC[C@H](NC(=O)/C(=C/C)NC(=O)[C@@H](N)[C@@H](C)CC)C(=O)N[C@@H]([C@@H](C)CC)C(=O)NC(=C)C(=O)N[C@@H](CC(C)C)C(=O)N5)C(=O)N5CCC[C@H]5C(=O)NCC(=O)N4)C(=O)NCC(=O)N[C@@H](C)C(=O)N[C@@H](CC(C)C)C(=O)N[C@@H](CCSC)C(=O)NCC(=O)N3)[C@@H](C)CC)C(C)C)[C@H](C)SC[C@H](NC2=O)C(=O)N[C@@H](Cc2cnc[nH]2)C(=O)N1)[C@@H](C)CC)C(C)C)C(=O)N[C@@H](CCCCN)C(=O)O`: the IC50 in [1] came out at 64.8 nM; in test [2] it was 36.9 nM; in test [7] it was 22.3 nM; in [8], 44.4 nM; in [10], 73.2 nM. Besides, the Ratio IC50 in test [3] was determined as 1.66; in test [4], 2.91; in test [5] it was 1.99; in [9], 3.29. Moreover, the result in [6] was Active.
As to `C=C(NC(=O)[C@@H](NC(=O)[C@H](Cc1cnc[nH]1)NC(=O)[C@@H](NC(=O)[C@H](CO)NC(=O)[C@@H]1CS[C@@H](C)[C@@H]2NC(=O)[C@H](C)NC(=O)[C@@H](NC(=O)[C@H](CCCCN)NC(=O)[C@H](CCSC)NC(=O)[C@@H](NC(=O)[C@@H](NC(=O)[C@H](CC(N)=O)NC(=O)[C@@H]3CS[C@@H](C)[C@H](NC(=O)[C@H](CCCCN)NC(=O)[C@@H]4CS[C@@H](C)[C@H](NC(=O)[C@@H]5CSC[C@H](NC(=O)/C(=C/C)NC(=O)[C@@H](N)[C@@H](C)CC)C(=O)N[C@@H]([C@@H](C)CC)C(=O)NC(=C)C(=O)N[C@@H](CC(C)C)C(=O)N5)C(=O)N5CCC[C@H]5C(=O)NCC(=O)N4)C(=O)NCC(=O)N[C@@H](C)C(=O)N[C@@H](CC(C)C)C(=O)N[C@@H](CCSC)C(=O)NCC(=O)N3)[C@@H](C)CC)C(C)C)[C@H](C)SC[C@H](NC2=O)C(=O)N[C@@H](Cc2cnc[nH]2)C(=O)N1)[C@@H](C)CC)C(C)C)C(=O)N[C@@H](CCCCN)C(=O)O`, the concentration for half-maximal inhibition (IC50) in test [1] came to 102 nM; in test [2] it was 107 nM; in test [7] it was 8.17 nM; in [8], 121 nM; in [10], 77.3 nM. Also, the Ratio IC50 in test [3] amounted to 13.1; in [4], 12.4; in test [5], 14.8; in [9], 9.46. The Activity in test [11] is 15%.

Source of the values: ChEMBL document CHEMBL4393732, “Influence of nisin hinge-region variants on lantibiotic immunity and resistance proteins” (Bioorg Med Chem, 2019).
